Laboratory results from patent US8609654B1, “Compounds for enzyme inhibition” (Onyx Therapeutics, Inc., priority 2006, dated 2013).

Legend:
[1] = biological target: T1, 26S proteasome CT-L activity in lysate of HT29 (constitutive) vs Sultan/Thp1 (immunoproteasome) cells (Homo sapiens, UniProt P28062+P28074); assay: CT-L EC50 with 26S proteasome in cell lysate (Lysate ratio); assay type: biochemical; conditions: HT29 lysate to Sultan/Thp1 lysate, >1 = prefers immunoproteasome
T1 construct: using 26S proteasome in the context of a cell lysate; endogenous in cells; host or cells: HT29 lysate (constitutive); Sultan or THP1 lysate (immunoproteasome)
T1 sequence (P28074 60-263): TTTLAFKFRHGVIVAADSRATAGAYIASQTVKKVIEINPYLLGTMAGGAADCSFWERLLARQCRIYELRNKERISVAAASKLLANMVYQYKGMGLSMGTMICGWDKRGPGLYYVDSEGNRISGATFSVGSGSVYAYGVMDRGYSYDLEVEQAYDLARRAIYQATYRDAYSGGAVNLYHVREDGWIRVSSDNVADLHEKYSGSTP
T1 sequence (P28062 73-276): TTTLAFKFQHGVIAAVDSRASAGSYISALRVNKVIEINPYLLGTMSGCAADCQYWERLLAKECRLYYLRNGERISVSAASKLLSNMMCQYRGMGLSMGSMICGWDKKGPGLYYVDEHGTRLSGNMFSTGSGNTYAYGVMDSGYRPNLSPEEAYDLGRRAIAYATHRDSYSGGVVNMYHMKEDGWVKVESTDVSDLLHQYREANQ
Protocol: Alternatively, the CT-L EC50 of a compound can be determined using 26S proteasome in the context of a cell lysate. Compound is added to lysate generated from cells that either predominantly express constitutive proteasome (e.g., HT29) or immunoproteasome (e.g., THP1). Again, the inhibitory preference is then based on the EC50 ratio (Lysate ratio).

[2] = biological target: T2, 20S proteasome subunit β5 vs immunoproteasome subunit LMP7 in RPMI-8226 cells (Homo sapiens, UniProt P28062+P28074); assay: ELISA-based active site assay in RPMI-8226 cells (ELISA ratio); assay type: cell-based; conditions: for Elisa ratio (beta5:LMP7): EC50 ratio with β5 antibody to LMP7 antibody, RPMI-8226 cells, >1 = prefers immunoproteasome
T2 construct: Cells expressing approximately equivalent amounts of immuno- and constitutive proteasome (e.g., RPMI-8226) are treated with test compound; endogenous in cells; host or cells: RPMI-8226 multiple myeloma cells
T2 sequence (P28074 60-263): T1 sequence (P28074 60-263)
T2 sequence (P28062 73-276): T1 sequence (P28062 73-276)
Protocol: Lastly, a more cell-based approach can be utilized. Cells expressing approximately equivalent amounts of immuno- and constitutive proteasome (e.g., RPMI-8226) are treated with test compound, followed by the method for determining the activity of a proteasome inhibitor as described in application Ser. No. 11/254,541. The ratio of the EC50 generated in the ELISA-based assay using β5 antibody and LMP7 antibodies (ELISA ratio) provides the basis for determining the inhibitory preference of the test compound. […] In all three assays, a ratio of less than one denotes the molecule inhibits the CT-L activity of the constitutive proteasome better than that of the immunoproteasome. Ratios greater than one signifies the molecule inhibits chymotrypsin-like activity of the immunoproteasome better than that of the constitutive proteasome.
A suitable ELISA assay may be found in U.S. patent application Ser. No. 11/254,541, incorporated herein in its entirety. Briefly, RPMI-8226 cells were treated with 0.1 nM to 1 μM of proteasome Inhibitor B. The samples were then washed with phosphate-buffered saline (PBS) and lysed in hypotonic buffer (20 mM Tris pH 8, 5 mM EDTA) (Tris-HCl and EDTA are available from Teknova, Inc., Hollister, Calif.). Cellular debris was removed by centrifugation at 14,000 rpm in a microfuge (4° C.) for 2 min. The supernatant was transferred to a fresh tube, snap frozen in liquid nitrogen and stored at −80° C. After thawing on ice, the samples (30 μl for assays run in triplicate) were treated with 500 nM of Inhibitor A for 1 hr at room temperature. Following treatment with Inhibitor A, the lysate was denatured by addition of seven volumes of 1% SDS (210 μl) (available from Bio-Rad, Hercules, Calif.) and heating at 99° C. with vigorous shaking for 5 min. The sample was allowed to cool and two volumes (60 μl) of 10% Triton X-100 (available from Bio-Rad, Hercules, Calif.) was added.
Streptavidin sepharose beads (6.5 μl/well) (available from Amersham Biosciences, Piscataway, N.J.), were washed three times with 1 ml PBS (available from Mediatech, Inc., Herndon, Va.) in a microcentrifuge tube. The beads were resuspended in ELISA wash/block buffer (PBS+0.1% Tween 20+1% bovine serum albumin; 20 μl/well) and transferred to the wells of a 96 well filter plate (BSA is available from Sigma, St. Louis, Mo.; Tween is available from Calbiochem, San Diego, Calif.). Denatured whole blood or PBMC lysates that were treated with Inhibitor 3 were added to the filter plate wells containing the streptavidin sepharose beads (each sample assayed in triplicate) and incubated for 1 hr at room temperature with shaking (MultiScreen-DV Opaque Plates with low protein binding durapore membrane; available from Millipore, Billerica, Mass.). The unbound material was removed by gentle filtration and the beads were washed six times with ELISA wash/block buffer (200 μl each).
Primary antibody to human 20S proteasome subunit (35 (rabbit polyclonal antibody; available from Biomol, Plymouth Meeting, Pa.) or human 20S immunoproteasome subunit LMP7 (rabbit polyclonal antibody; available from Affinity BioReagents, Golden, Colo.) was diluted 1:1000 in ELISA wash/block buffer, added to the beads (100 μl/well), and incubated for 1 hr at room temperature on an orbital shaker. The beads were washed six times with ELISA wash/block buffer with gentle filtration. Secondary antibody treatment (1:5000) and washing are as described for primary antibody (goat anti-rabbit antibody-HRP conjugate; available from Biosource, Camarillo, Calif.). The beads were then resuspended in 100 μl chemiluminescent detection reagent (Super Signal Pico Chemiluminescent Substrate™; available from Pierce, Rockford, Ill.) and luminescence was read on a Tecan plate reader. […]

[3] = test system: chymotryptic-like activity of isolated 20S constitutive proteasome vs immunoproteasome; assay: Enzyme kinetic assay with isolated 20S proteasome preps, EC50 ratio of CT-L activity (20S ratio); assay type: biochemical; conditions: constitutive proteasome to immunoproteasome, >1 = prefers immunoproteasome
Text: Enzyme kinetic assays such as those disclosed in U.S. application Ser. No. 09/569,748, Example 2 and Stein et al., Biochem. (1996), 35, 3899-3908 use isolated 20S proteasome preps with greater than 90% constitutive proteasome subunits or immunoproteasome subunits. The inhibitory preference of the molecule is then based on the EC50 ratio of the chymotryptic-like activity of the constitutive proteasome to that of the immunoproteasome (20S ratio).

CC(C)CC(NC(=O)OCc1ccccc1)C(=O)N[C@@H](CC(C)C)C(=O)N[C@@H](Cc1ccccc1)C(=O)C1(C)CO1 (some centres unmarked)
Lysate ratio (HT29:Sultan/Thp1) [1]: <1.0 | Elisa ratio (beta5:LMP7) [2]: <0.5 | 20 S ratio (const:immuno) [3]: <0.5

CC(NC(=O)OCc1ccccc1)C(=O)N[C@@H](Cc1ccccc1)C(=O)N[C@@H](CCc1ccccc1)C(=O)C1(C)CO1 (some centres unmarked)
Lysate ratio (HT29:Sultan/Thp1) [1]: >3.0 | Elisa ratio (beta5:LMP7) [2]: >3.0 | 20 S ratio (const:immuno) [3]: >2.0

CC(C)C[C@H](NC(=O)[C@H](Cc1c[nH]c2ccccc12)NC(=O)[C@H](C)NC(=O)OCc1ccccc1)C(=O)C1(C)CO1 (some centres unmarked)
20 S ratio (const:immuno) [3]: <0.5

CC(NC(=O)OCc1ccccc1)C(=O)N[C@@H](Cc1ccccc1)C(=O)N[C@H](C(=O)C1(C)CO1)c1ccccc1 (some centres unmarked)
Lysate ratio (HT29:Sultan/Thp1) [1]: >5.0 | Elisa ratio (beta5:LMP7) [2]: >1.0 | 20 S ratio (const:immuno) [3]: >1.0

CC(C)C(NC(=O)OCc1ccccc1)C(=O)N[C@@H](Cc1c[nH]c2ccccc12)C(=O)N[C@@H](Cc1ccccc1)C(=O)C1(C)CO1 (some centres unmarked)
Lysate ratio (HT29:Sultan/Thp1) [1]: >5.0 | Elisa ratio (beta5:LMP7) [2]: >5.0 | 20 S ratio (const:immuno) [3]: >5.0

CC(NC(=O)OCc1ccccc1)C(=O)N[C@@H](Cc1c[nH]c2ccccc12)C(=O)N[C@@H](Cc1ccc(O)cc1)C(=O)C1(C)CO1 (some centres unmarked)
Lysate ratio (HT29:Sultan/Thp1) [1]: >3.0 | Elisa ratio (beta5:LMP7) [2]: >5.0 | 20 S ratio (const:immuno) [3]: >3.0

CC(C)C[C@H](NC(=O)[C@H](Cc1ccccc1)NC(=O)C(C)NC(=O)OCc1ccccc1)C(=O)C1(C)CO1 (some centres unmarked)
Lysate ratio (HT29:Sultan/Thp1) [1]: <0.5 | Elisa ratio (beta5:LMP7) [2]: <1.0 | 20 S ratio (const:immuno) [3]: <0.5

CC(C)CC(NC(=O)OCc1ccccc1)C(=O)N[C@@H](CC(C)C)C(=O)N[C@@H](CC(C)C)C(=O)C1(C)CO1 (some centres unmarked)
Lysate ratio (HT29:Sultan/Thp1) [1]: <0.5 | Elisa ratio (beta5:LMP7) [2]: <0.5 | 20 S ratio (const:immuno) [3]: <0.5

CC[C@H](C)C(NC(=O)[C@H](Cc1c[nH]c2ccccc12)NC(=O)[C@H](C)NC(=O)OCc1ccccc1)C(=O)C1(C)CO1 (some centres unmarked)
Lysate ratio (HT29:Sultan/Thp1) [1]: <0.5 | Elisa ratio (beta5:LMP7) [2]: <1.0 | 20 S ratio (const:immuno) [3]: <0.5

CC(C)C[C@H](NC(=O)OCc1ccccc1)C(=O)N[C@@H](Cc1ccccc1)C(=O)N[C@@H](CC(C)C)C(=O)C1(C)CO1 (some centres unmarked)
Lysate ratio (HT29:Sultan/Thp1) [1]: <0.5 | Elisa ratio (beta5:LMP7) [2]: <0.5 | 20 S ratio (const:immuno) [3]: <0.5

CC1(C(=O)[C@H](Cc2ccccc2)NC(=O)[C@H](Cc2ccccc2)NC(=O)[C@H](Cc2c[nH]cn2)NC(=O)OCc2ccccc2)CO1 (some centres unmarked)
Lysate ratio (HT29:Sultan/Thp1) [1]: <1.0 | Elisa ratio (beta5:LMP7) [2]: <1.0 | 20 S ratio (const:immuno) [3]: <1.0

CC[C@@H](NC(=O)OCc1ccccc1)C(=O)N[C@@H](Cc1ccccc1)C(=O)N[C@@H](Cc1ccccc1)C(=O)C1(C)CO1 (some centres unmarked)
Lysate ratio (HT29:Sultan/Thp1) [1]: >5.0 | Elisa ratio (beta5:LMP7) [2]: >3.0 | 20 S ratio (const:immuno) [3]: >5.0

CC1(C(=O)[C@H](Cc2ccccc2)NC(=O)[C@H](Cc2c[nH]c3ccccc23)NC(=O)[C@H](CCC(N)=O)NC(=O)OCc2ccccc2)CO1 (some centres unmarked)
Lysate ratio (HT29:Sultan/Thp1) [1]: >3.0 | Elisa ratio (beta5:LMP7) [2]: >1.0 | 20 S ratio (const:immuno) [3]: >1.0

Cc1ccc(C[C@H](NC(=O)[C@H](C)NC(=O)OCc2ccccc2)C(=O)N[C@@H](Cc2ccccc2)C(=O)C2(C)CO2)cc1 (some centres unmarked)
Lysate ratio (HT29:Sultan/Thp1) [1]: >5.0 | Elisa ratio (beta5:LMP7) [2]: >5.0 | 20 S ratio (const:immuno) [3]: >2.0

C[C@H](NC(=O)OCc1ccccc1)C(=O)N[C@@H](Cc1cn(C)c2ccccc12)C(=O)N[C@@H](Cc1ccccc1)C(=O)C1(C)CO1 (some centres unmarked)
Lysate ratio (HT29:Sultan/Thp1) [1]: >1.0 | Elisa ratio (beta5:LMP7) [2]: >3.0 | 20 S ratio (const:immuno) [3]: >1.0

C[C@H](NC(=O)OCc1ccccc1)C(=O)N[C@@H](Cc1ccc(C(C)(C)C)cc1)C(=O)N[C@@H](Cc1ccccc1)C(=O)C1(C)CO1 (some centres unmarked)
Lysate ratio (HT29:Sultan/Thp1) [1]: >2.0 | Elisa ratio (beta5:LMP7) [2]: >3.0 | 20 S ratio (const:immuno) [3]: >2.0

C[C@H](NC(=O)OCc1ccccc1)C(=O)N[C@@H](Cc1ccc(C(F)(F)F)cc1)C(=O)N[C@@H](Cc1ccccc1)C(=O)C1(C)CO1 (some centres unmarked)
Lysate ratio (HT29:Sultan/Thp1) [1]: >3.0 | Elisa ratio (beta5:LMP7) [2]: >2.0 | 20 S ratio (const:immuno) [3]: >1.0

CC[C@@H](NC(=O)OCc1ccccc1)C(=O)N[C@@H](Cc1c[nH]c2ccccc12)C(=O)N[C@@H](Cc1ccccc1)C(=O)C1(C)CO1 (some centres unmarked) [inhibitor (B)]
ELISA ratio (EC50 β5 antibody : LMP7 antibody) ([2]; RPMI-8226 cells treated with 0.1 nM to 1 μM): greater than 20

CC[C@@H](NC(=O)OCc1ccccc1)C(=O)N[C@@H](Cc1c[nH]c2ccccc12)C(=O)N[C@@H](Cc1ccccc1)C(=O)C1(C)CO1 (some centres unmarked) [drawing 84]
Lysate ratio (HT29:Sultan/Thp1) [1]: >3.0 | Elisa ratio (beta5:LMP7) [2]: >5.0 | 20 S ratio (const:immuno) [3]: >5.0

CC(NC(=O)OCc1ccccc1)C(=O)N[C@@H](Cc1ccccc1)C(=O)N[C@@H](C)C(=O)C1(C)CO1 (some centres unmarked)
Lysate ratio (HT29:Sultan/Thp1) [1]: <0.5 | Elisa ratio (beta5:LMP7) [2]: <0.5 | 20 S ratio (const:immuno) [3]: <0.5

COc1ccc(NC(=S)N[C@@H](CC(C)C)C(=O)N[C@@H](Cc2ccccc2)C(=O)N[C@@H](CC(C)C)C(=O)C2(C)CO2)cc1 (some centres unmarked)
Lysate ratio (HT29:Sultan/Thp1) [1]: <0.5

COc1ccc(C[C@H](NC(=O)C(C)NC(=O)OCc2ccccc2)C(=O)N[C@@H](Cc2ccc(O)cc2)C(=O)C2(C)CO2)cc1 (some centres unmarked) [drawing 65]
Lysate ratio (HT29:Sultan/Thp1) [1]: >2.0 | Elisa ratio (beta5:LMP7) [2]: >5.0 | 20 S ratio (const:immuno) [3]: >5.0

Cc1ccc(CCC(=O)N[C@@H](CC(C)C)C(=O)N[C@@H](Cc2ccccc2)C(=O)N[C@@H](CC(C)C)C(=O)C2(C)CO2)cc1 (some centres unmarked)
Lysate ratio (HT29:Sultan/Thp1) [1]: <0.5

CC[C@@H](C)C(NC(=O)[C@H](Cc1ccccc1)NC(=O)C(C)NC(=O)OCc1ccccc1)C(=O)C1(C)CO1 (some centres unmarked)
Elisa ratio (beta5:LMP7) [2]: <1.0

CC(C)CC(NC(=O)Nc1ccccc1)C(=O)N[C@@H](Cc1ccccc1)C(=O)N[C@@H](CC(C)C)C(=O)C1(C)CO1 (some centres unmarked)
Lysate ratio (HT29:Sultan/Thp1) [1]: <0.5

COc1ccc(NC(=O)NC(CC(C)C)C(=O)N[C@@H](Cc2ccccc2)C(=O)N[C@@H](CC(C)C)C(=O)C2(C)CO2)cc1 (some centres unmarked)
Lysate ratio (HT29:Sultan/Thp1) [1]: <0.5

C[C@H](NC(=O)OCc1ccccc1)C(=O)N[C@@H](Cc1c[nH]c2ccccc12)C(=O)N[C@@H](C)C(=O)C1(C)CO1 (some centres unmarked)
20 S ratio (const:immuno) [3]: <0.5
